≈ marks a conversion by molar mass, not a printed value.
Legend:
[1] = tested on: C. difficile spores; assay: Spore viability testing; type: cell-based; settings: for Inhibition of C. difficile spore germination: x5 MIC
[2] = tested on: C. difficile ATCC43596; assay: Minimum inhibitory concentration assay
[3] = tested on: AsPc-1 (pancreatic cancer) cells; assay: Synergistic assay (checkerboard) on AsPc-1 cells; type: cell-based; settings: AsPc-1 cells
Experimental: Synergistic Assay. The synergistic or antagonistic activities of 11 with other cancer drugs on AsPc-1 (pancreatic cancer) cells were assessed in vitro via micro dilution broth checkerboard technique previously reported. The FIC index was calculated according to the following equation. ΣFIC=FICA+FICB=CA/MICA+CB/MICB where MICA and MICB are MIC of drugs A and B, CA and CB are the concentrations of drugs A and B used in combination. In these interaction studies, ΣFIC of less than 0.5 represents synergistic activity.
These experiments were performed in the same manner as those of Example 8.

For `CCCCCCCc1ccc(NC(=O)CCCN(C)[C@H](C(N)=O)[C@H](OC2O[C@H](CN)[C@@H](O)[C@H]2O)[C@H]2O[C@@H](n3ccc(=O)[nH]c3=O)C(O)[C@H]2O)cc1` (stereo partly drawn) [Compound 9], the “Viability of C. difficile spores” value ([1]; x2 MIC, 24 hours, CFU on taurocholate agar) was “caused loss of viability” and the “anti-C. difficile growth inhibitory activity (in words)” value [2] was “weak”.
With `CC(=O)NC[C@H]1CN(c2ccc(N3CCOCC3)c(F)c2)C(=O)O1` [linezolid, reference compound] the “Inhibition of C. difficile spore germination” value [1] was “did not inhibit the spore germination”.
`CN[C@H](CC(C)C)C(=O)N[C@H]1C(=O)N[C@@H](CC(N)=O)C(=O)N[C@H]2C(=O)N[C@H]3C(=O)N[C@H](C(=O)N[C@H](C(=O)O)c4cc(O)cc(O)c4-c4cc3ccc4O)[C@H](O)c3ccc(c(Cl)c3)Oc3cc2cc(c3O[C@@H]2O[C@H](CO)[C@@H](O)[C@H](O)[C@H]2O[C@H]2C[C@](C)(N)[C@H](O)[C@H](C)O2)Oc2ccc(cc2Cl)[C@H]1O` [vancomycin, reference compound] was tested, and the “Inhibition of C. difficile spore germination” value [1] was “did not inhibit the spore germination” and the “MIC against C. difficile (reference antibiotic)” value [2] was 2.5 µg/mL (≈ 1.73 µM).
Tunicamycin was tested, and the “C. difficile ATCC43596 MIC” value ([2]; 48 h, 37° C., anaerobic) was over 50 µg/mL.
For `Nc1ccn([C@@H]2O[C@H](CO)[C@@H](O)C2(F)F)c(=O)n1` [Gemcitabine, reference compound], the “IC50 A / IC50 B (drug alone)” value ([3]; Table 6) was 390 nM and the “CA and CB (concentrations of drugs A and B used in combination)” value ([3]; combination of 11 (A) and Gemcitabine (B), per entry) was 0.37 µM.
With `CN(CCCC(=O)NCc1ccc(N2CCC(Oc3ccc(C(F)(F)F)cc3)CC2)cc1)[C@H](C(N)=O)[C@H](O[C@@H]1O[C@H](CN)[C@@H](O)[C@H]1O)[C@H]1O[C@@H](n2ccc(=O)[nH]c2=O)[C@H](O)C1O` (stereo partly drawn) [Compound 12] the “anti-C. difficile growth inhibitory activity (in words)” value [2] was “weak”.
